The test relates to SARS-CoV-2. As to the kind of experiment: microbe, parasite or virus in culture. Conditions: for EC50: Severe acute respiratory syndrome coronavirus 2, 72 h, read-out: 50% SARS-CoV-2 infected cell death inhibitory concentration (EC50), VeroE6/TMPRSS2 cells, SARS-CoV-2, 3 days culture, CellTiter-Glo 2.0; for coronavirus replication inhibitory activity: at concentrations up to 50 µM. It is filed as cell-based. (ATP-based viability assays read luminescence as a measure of living cells.)

Take `Cc1nc2ccc(/N=c3\[nH]c(=O)n(C[C@H]4COC(C)(C)O4)c(=O)n3Cc3ccc(Cl)cc3)cc2s1` [Patent Document 1 Compound 1-1603]: the EC50 is greater than 50 µM and the “coronavirus replication inhibitory activity” value is given as “did not show coronavirus replication inhibitory activity”.

As to `CC(C)Oc1ccc(/N=c2\[nH]c(=O)n(Cc3ncn[nH]3)c(=O)n2Cc2ccc(Cl)cc2)cc1F` [Patent Document 1 Compound I-0679], the EC50 is greater than 50 µM and the “coronavirus replication inhibitory activity” value is “did not show coronavirus replication inhibitory activity”.

On to `COc1ncccc1Cn1c(=O)[nH]/c(=N\c2ccc(OC(C)C)c(F)c2)n(Cc2ccc(Cl)cc2)c1=O` [Patent Document 1 Compound I-0683], for which the EC50 was greater than 50 µM and the “coronavirus replication inhibitory activity” value is given as “did not show coronavirus replication inhibitory activity”.

Regarding `CC(C)Oc1ccc(/N=c2\[nH]c(=O)n(Cc3ccc[nH]c3=O)c(=O)n2Cc2ccc(Cl)cc2)cc1F` [Patent Document 1 Compound I-0685], the EC50 is greater than 50 µM and the “coronavirus replication inhibitory activity” value is on record as “did not show coronavirus replication inhibitory activity”.

On to `O=C(O)c1ccc(Oc2ccc(/N=c3\[nH]c(=O)n(-c4cccs4)c(=O)n3Cc3ccc(Cl)cc3)cc2)nc1` [Patent Document 2 Compound I-575], for which the EC50 is greater than 50 µM and the “coronavirus replication inhibitory activity” value is recorded as “did not show coronavirus replication inhibitory activity”.

As for `O=C(O)c1ccc(Oc2ccc(/N=c3\[nH]c(=O)n(-c4ccon4)c(=O)n3Cc3ccc(Cl)cc3)cc2)nc1` [Patent Document 2 Compound I-580], the EC50 was greater than 50 µM and the “coronavirus replication inhibitory activity” value is “did not show coronavirus replication inhibitory activity”.

Consider `Cc1ccc(Cn2c(=O)nc(Nc3cccc(C(F)(F)F)c3)n(Cc3ccc(Cl)c(Cl)c3)c2=O)cc1` [Patent Document 3 Compound 1-066], for which the EC50 was greater than 50 µM and the “coronavirus replication inhibitory activity” value is reported as “did not show coronavirus replication inhibitory activity”.

The values above are taken from patent publication US11814368B2, “Triazine derivatives having virus replication inhibitory activity and pharmaceutical composition comprising the same” (priority 2021, dated 2023).
